Consider 18 compounds from patent publication US10053453B2, “Compounds and their use as BACE inhibitors” (AstraZeneca AB, priority 2014, dated 2018).

In general, IC50 refers to the point on the concentration scale where inhibition reaches its midpoint.

Each structure is given as a SMILES string. Where a name gives a salt, the structure may show the parent alone. Read-outs that look alike come from different tables or passages of the source.

One experiment deals with T1, Human BACE1 (Homo sapiens, UniProt P56817).
T1 construct: the soluble part of the human β-Secretase1 (AA1-AA460) was cloned using the BACE1(1-460)-(AVT)-Fc-pGEN-IRES-neo mammalian expression vector; AVT linker (C); made in house
Put plainly: Diluted TR-FRET assay. The class given is biochemical. As to conditions: 50 times less enzyme, 6.5 h reaction time at r.t.; read-out: IC50 BACE1 (dil. TR-FRET). The method, then:
(§1) The β-secretase enzyme used in the TR-FRET was prepared as follows:
(§2) Human BACE1: the cDNA for the soluble part of the human β-Secretase1 (AA1-AA460) was cloned using the BACE1(1-460)-(AVT)-Fc-pGEN-IRES-neo mammalian expression vector. The gene was fused to the Fe domain of IgG1 (affinity tag) and stably cloned into HEK 293 cells. […]
A multidrop Combi was used for the liquid handling. Enzyme (7 μL) was added to the compound plate (containing 0.8 μL of compound in dimethylsulphoxide). The plate was incubated for 10 minutes. […] The reaction was stopped with the addition of Stop solution (5.5 μL, NaOAC, pH 9). Fluorescence was measured on a Pherastar plate reader using HTRF module. […] 5 reference inhibitors with different affinities were used at all screen occasions in dose response.
A general note: In TR-FRET formats the signal depends on donor and acceptor labels being close together.

A further experiment deals with T2, Human BACE2 (Homo sapiens, UniProt Q9Y5Z0).
T2 construct: the soluble part of the human β-Secretase2 (AA1-AA473) was cloned using BACE2(1-473)-(AVT)-Fc-pDEST12.2 mammalian expression vector; AVT linker (C); made in house
T2 sequence (Q9Y5Z0 21-473): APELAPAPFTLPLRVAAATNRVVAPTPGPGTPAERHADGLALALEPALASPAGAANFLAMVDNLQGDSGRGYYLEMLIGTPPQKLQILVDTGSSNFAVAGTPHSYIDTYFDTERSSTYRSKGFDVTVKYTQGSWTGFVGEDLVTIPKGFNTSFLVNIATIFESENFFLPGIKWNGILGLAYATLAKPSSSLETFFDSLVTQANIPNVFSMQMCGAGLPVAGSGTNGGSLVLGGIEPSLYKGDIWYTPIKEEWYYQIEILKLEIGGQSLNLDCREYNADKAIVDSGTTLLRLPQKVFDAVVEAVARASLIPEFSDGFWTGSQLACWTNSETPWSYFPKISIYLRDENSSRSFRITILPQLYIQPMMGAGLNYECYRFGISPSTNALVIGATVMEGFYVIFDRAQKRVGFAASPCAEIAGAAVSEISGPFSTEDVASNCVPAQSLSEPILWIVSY
As to the kind of experiment: TR-FRET assay. The class given is biochemical. As to conditions: enzyme 2.7 μg/mL, substrate 100 nM, pH4.5. The method, then: as §1, §2
A multidrop Combi was used for the liquid handling. Enzyme (7 μL) was added to the compound plate (containing 0.8 μL of compound in dimethylsulphoxide). The plate was incubated for 10 minutes. Substrate (8 μL) was then added, and the reaction proceeded for 17 minutes at r.t. The reaction was stopped with the addition of Stop solution (5.5 μL, NaOAC, pH 9). Fluorescence was measured on a Pherastar plate reader using HTRF module. […] 5 reference inhibitors with different affinities were used at all screen occasions in dose response.

Another experiment has as its system SH-SY5Y cells. As to the kind of experiment: sAPPβ release assay.
The mark [1] stands for this setting: Homo sapiens, SH-SY5Y, read-out: IC50 Cell (sAPPβ release, nM), SH-SY5Y cells, compounds incubated 16-17 h.
Setting [2] is: Homo sapiens, SH-SY5Y, read-out: IC50 Cell (sAPPβ release, nM).

T1 sequence (P56817 22-460): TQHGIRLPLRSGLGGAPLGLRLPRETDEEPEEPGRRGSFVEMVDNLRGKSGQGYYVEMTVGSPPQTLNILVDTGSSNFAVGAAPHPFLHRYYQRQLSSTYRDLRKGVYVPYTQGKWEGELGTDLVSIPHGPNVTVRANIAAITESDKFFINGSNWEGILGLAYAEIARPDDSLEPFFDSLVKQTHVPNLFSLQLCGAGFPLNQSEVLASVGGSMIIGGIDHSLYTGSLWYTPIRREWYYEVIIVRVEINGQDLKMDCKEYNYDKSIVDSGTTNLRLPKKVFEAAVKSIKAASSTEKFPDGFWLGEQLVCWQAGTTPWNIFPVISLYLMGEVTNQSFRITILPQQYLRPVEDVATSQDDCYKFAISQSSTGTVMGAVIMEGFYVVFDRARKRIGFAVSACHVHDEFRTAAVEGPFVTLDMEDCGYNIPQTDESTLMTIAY

For `[2H]C1([2H])OC(N)=N[C@]12c1cc(C#CC(C)C)ccc1C[C@@]21CC[C@H](O)[C@@H](C)C1` (racemic) [Compound 11, (1S,3S,4S)-2″-amino-3-methyl-6′-(3-methylbut-1-yn-1-yl)-3′H,5″H-dispiro[cyclohexane-1,2′-indene-1′,4″-oxazol]-5″,5″-d2-4-ol and (1R,3R,4R)-2″-amino-3-methyl-6′-(3-methylbut-1-yn-1-yl)-3′H,5″H-dispiro[cyclohexane-1,2′-indene-1′,4″-oxazol]-5″,5″-d2-4-ol], the IC50 was 0.266 µM on Human BACE1, 0.519 µM at Human BACE2 and 0.9 nM in the experiment on SH-SY5Y cells (setting [1]).

With `[2H]C1([2H])OC(N)=N[C@]12c1cc(-c3cncc(C4CC4)c3)ccc1C[C@]21CC[C@@H](OC)[C@H](C)C1` [Compound 1, (1R,1′R,3R,4R)-6′-(5-cyclopropylpyridin-3-yl)-4-methoxy-3-methyl-3′H,5″H-dispiro[cyclohexane-1,2′-indene-1′,4″-oxazol]-5″,5″-d2-2″-amine formate Salt], the figures for the IC50 on Human BACE1, against Human BACE2 and with SH-SY5Y cells (setting [1]) were 0.239 µM, 0.144 µM and 5.3 nM, respectively.

For the compound `[2H]C1([2H])OC(N)=N[C@]12c1cc(-c3cncc(C#CC)c3)ccc1C[C@]21CC[C@@H](OC)[C@H](C)C1` [Compound 2, (1R,1′R,3R,4R)-4-methoxy-3-methyl-6′-(5-(prop-1-yn-1-yl)pyridin-3-yl)-3′H,5″H-dispiro[cyclohexane-1,2′-indene-1′,4″-oxazol]-5″,5″-d2-2″-amine], the values for the IC50 on Human BACE1, against Human BACE2 and in the experiment on SH-SY5Y cells (setting [1]) were 0.0062 µM, 0.017 µM and 0.27 nM, respectively.

For the compound `[2H]C1([2H])OC(N)=N[C@]12c1cc(-c3cncc(C#CC)c3)ccc1C[C@@]21CC[C@H](OC)[C@@H](C)C1` [Compound 3, (1S,1′R,3S,4S)-4-methoxy-3-methyl-6′-(5-(prop-1-yn-1-yl)pyridin-3-yl)-3′H,5″H-dispiro[cyclohexane-1,2′-indene-1′,4″-oxazol]-5″,5″-d2-2″-amine], the IC50 on Human BACE1 came to 0.0011 µM; against Human BACE2, 0.016 µM; in the experiment on SH-SY5Y cells (setting [1]), 0.2 nM.

For the compound `[2H]C1([2H])OC(N)=N[C@]12c1cc(-c3cncc(Cl)c3)ccc1C[C@@]21CC[C@H](OC)[C@@H](C)C1` [Compound 4, (1S,1′R,3S,4S)-6′-(5-chloropyridin-3-yl)-4-methoxy-3-methyl-3′H,5″H-dispiro[cyclohexane-1,2′-indene-1′,4″-oxazol]-5″,5″-d2-2″-amine], the IC50 at Human BACE1 was determined as 0.0068 µM; at Human BACE2 it was 0.0378 µM; in the experiment with SH-SY5Y cells (setting [1]), 0.39 nM.

For the compound `[2H]C1([2H])OC(N)=N[C@]12c1cc(-c3cncc(C4CC4)c3)ccc1C[C@@]21CC[C@H](OC)[C@@H](C)C1` [Compound 6, (1S,1′R,3S,4S)-6′-(5-cyclopropylpyridin-3-yl)-4-methoxy-3-methyl-3′H,5″H-dispiro[cyclohexane-1,2′-indene-1′,4″-oxazol]-5″,5″-d2-2″-amine], the IC50 was 0.054 µM at Human BACE1, 0.099 µM against Human BACE2 and 2.2 nM in the experiment on SH-SY5Y cells (setting [1]).

For `[2H]C1([2H])OC(N)=N[C@]12c1cc(-c3cncc(Cl)c3)ccc1C[C@]21CC[C@@H](OC)[C@H](C)C1` [Compound 7, (1R,1′R,3R,4R)-6′-(5-chloropyridin-3-yl)-4-methoxy-3-methyl-3′H,5″H-dispiro[cyclohexane-1,2′-indene-1′,4″-oxazol]-5″,5″-d2-2″-amine], the IC50 at Human BACE1 was 0.0117 µM; against Human BACE2, 0.0227 µM; with SH-SY5Y cells (setting [1]), 0.45 nM.

`[2H]C1([2H])OC(N)=N[C@]12c1cc(-c3cccnc3)ccc1C[C@@]21CC[C@H](OC)[C@@H](C)C1` [Compound 8, (1S,1′R,3S,4S)-4-methoxy-3-methyl-6′-(pyridin-3-yl)-3′H,5″H-dispiro[cyclohexane-1,2′-indene-1′,4″-oxazol]-5″,5″-d2-2″-amine]: the figures for the IC50 on Human BACE1, against Human BACE2 and in the experiment on SH-SY5Y cells (setting [1]) were 0.0547 µM, 0.716 µM and 0.76 nM, respectively.

Take `CO[C@H]1CC[C@]2(CC1)Cc1ccc(C#CC(C)C)cc1C21COC(N)=N1` (stereo partly shown) [Compound 12, (1r,4r)-4-methoxy-6′-(3-methylbut-1-yn-1-yl)-3′H,5″H-dispiro[cyclohexane-1,2′-indene-1′,4″-oxazol]-2″-amine]: the IC50 on Human BACE1 was determined as 0.135 µM; against Human BACE2 it was 0.128 µM; in the experiment on SH-SY5Y cells (setting [1]) it was 5.9 nM.

For `[2H]C1([2H])OC(N)=N[C@]12c1cc(-c3cccnc3)ccc1C[C@]21CC[C@@H](OC)[C@H](C)C1` [Compound 13, (1R,1′R,3R,4R)-4-methoxy-3-methyl-6′-(pyridin-3-yl)-3′H,5″H-dispiro[cyclohexane-1,2′-indene-1′,4″-oxazol]-5″,5″-d2-2″-amine], the IC50 at Human BACE1 worked out at 0.161 µM; at Human BACE2, 0.217 µM; in the experiment with SH-SY5Y cells (setting [1]), 1.7 nM.

In the case of `CC#Cc1cncc(-c2ccc3c(c2)C2(COC(N)=N2)[C@]2(CC[C@H](OC)CC2)C3)c1` (stereo partly shown) [Compound 15, (1r,4r)-4-methoxy-6′-(5-(prop-1-yn-1-yl)pyridin-3-yl)-3′H,5″H-dispiro[cyclohexane-1,2′-indene-1′,4″-oxazol]-2″-amine], the results for the IC50 on Human BACE1, against Human BACE2 and in the experiment on SH-SY5Y cells (setting [1]) were 0.016 µM, 0.023 µM and 1.1 nM, respectively.

Take `[2H]C1([2H])OC(N)=NC12c1cc(-c3cncc(Cl)c3)ccc1C[C@]21CC[C@@H](OC)CC1` (stereo partly shown) [Compound 16, (1r,4r)-6′-(5-chloropyridin-3-yl)-4-methoxy-3′H,5″H-dispiro[cyclohexane-1,2′-indene-1′,4″-oxazol]-5″,5″-d2-2″-amine]: the IC50 is 0.128 µM at Human BACE1, 0.105 µM on Human BACE2 and 3.8 nM with SH-SY5Y cells (setting [1]).

As for `[2H]C1([2H])OC(N)=N[C@]12c1cc(-c3cc(F)cc(C#N)c3)ccc1C[C@]21CC[C@@H](OC)[C@H](C)C1` [Compound 17, 3-((1R,1′R,3R,4R)-2″-amino-4-methoxy-3-methyl-3′H,5″H-dispiro[cyclohexane-1,2′-indene-1′,4″-oxazol]-6′-yl-5″,5″-d2)-5-fluorobenzonitrile], the figures for the IC50 at Human BACE1, on Human BACE2 and with SH-SY5Y cells (setting [1]) were 0.0467 µM, 0.0302 µM and 2.1 nM, respectively.

On to `CO[C@H]1CC[C@]2(CC1)Cc1ccc(-c3cncnc3)cc1[C@@]21COC(N)=N1` [Compound 47, (1r,1′R,4R)-4-methoxy-6′-(pyrimidin-5-yl)-3′H,5″H-dispiro[cyclohexane-1,2′-indene-1′,4″-oxazol]-2″-amine], for which the IC50 was determined as 0.152 µM at Human BACE1 and 9.1 nM with SH-SY5Y cells (setting [2]).

As to `CO[C@H]1CC[C@]2(CC1)Cc1ccc(-c3cncnc3)cc1C21COC(N)=N1` (stereo partly shown) [Compound 50, (1r,4r)-4-methoxy-6′-(pyrimidin-5-yl)-3′H,5″H-dispiro[cyclohexane-1,2′-indene-1′,4″-oxazol]-2″-amine], the IC50 on Human BACE1 was determined as 0.579 µM; with SH-SY5Y cells (setting [2]), 16 nM.

`[2H]C1([2H])OC(N)=NC12c1cc(-c3cc(Cl)cc(C#N)c3)ccc1C[C@@]21C[C@@H](C)[C@H](OC)[C@@H](C)C1` (stereo partly drawn) [Compound 52, 3-((1r,3R,4r,5S)-2″-amino-4-methoxy-3,5-dimethyl-3′H,5″H-dispiro[cyclohexane-1,2′-indene-1′,4″-oxazol]-6′-yl-5″,5″-d2)-5-chlorobenzonitrile]: the IC50 turned out to be 0.0047 µM at Human BACE1 and 4.3 nM with SH-SY5Y cells (read-out: IC50 Cell (sAPPβ release), SH-SY5Y cells, compounds incubated 16-17 h).

For `[2H]C1([2H])OC(N)=N[C@]12c1cc(-c3cccnc3)ccc1C[C@]21CC[C@@H](OC)CC1` [Compound 117, {(1r,1′R,4R)-4-methoxy-6′-(pyrimidin-3-yl)-3′H,5″H-dispiro[cyclohexane-1,2′-indene-1′,4″-oxazol]-5″,5″-d2-2″-amine}], the results for the IC50 on Human BACE1 and in the experiment with SH-SY5Y cells (setting [2]) were 0.341 µM and 7 nM, respectively.

`[2H]C1([2H])OC(N)=N[C@]12c1cc(-c3cncnc3)ccc1C[C@]21CC[C@@H](OC)CC1` [Compound 118, {(1r,1′R,4R)-4-methoxy-6′-(pyrimidin-5-yl)-3′H,5″H-dispiro[cyclohexane-1,2′-indene-1′,4″-oxazol]-5″,5″-d2-2″-amine}]: the IC50 at Human BACE1 was 0.287 µM; in the experiment on SH-SY5Y cells (setting [2]), 6 nM.
